Measured values: ChEMBL document CHEMBL1955812, “New chemotypes acting as isozyme-selective carbonic anhydrase inhibitors with low affinity for the offtarget cytosolic isoform II” (Bioorg Med Chem Lett, 2012)
pKi: −log10 of the molar value.

Experiments:
Carbonic anhydrase 12 [1] = target: T1, Carbonic anhydrase 12 (Homo sapiens, UniProt O43570); assay: Inhibition of human recombinant carbonic anhydrase 12 preincubated for 15 mins to 72 hrs measured after 6 hrs by stopped flow CO2 hydration method
T1 sequence (O43570 whole entry): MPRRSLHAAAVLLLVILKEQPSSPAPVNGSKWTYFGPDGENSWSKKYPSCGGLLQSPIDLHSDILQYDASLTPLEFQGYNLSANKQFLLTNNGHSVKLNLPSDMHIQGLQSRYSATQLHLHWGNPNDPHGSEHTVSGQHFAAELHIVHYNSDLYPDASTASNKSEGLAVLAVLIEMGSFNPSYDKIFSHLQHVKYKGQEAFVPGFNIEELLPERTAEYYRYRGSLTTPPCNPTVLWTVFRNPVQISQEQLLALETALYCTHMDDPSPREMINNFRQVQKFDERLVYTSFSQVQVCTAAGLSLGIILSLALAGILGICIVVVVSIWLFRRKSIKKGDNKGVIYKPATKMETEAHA

Carbonic anhydrase 7 [2] = target: T2, Carbonic anhydrase 7 (Homo sapiens, UniProt P43166); assay: Inhibition of human recombinant carbonic anhydrase 7 preincubated for 15 mins to 72 hrs measured after 6 hrs by stopped flow CO2 hydration method
T2 sequence (P43166 whole entry): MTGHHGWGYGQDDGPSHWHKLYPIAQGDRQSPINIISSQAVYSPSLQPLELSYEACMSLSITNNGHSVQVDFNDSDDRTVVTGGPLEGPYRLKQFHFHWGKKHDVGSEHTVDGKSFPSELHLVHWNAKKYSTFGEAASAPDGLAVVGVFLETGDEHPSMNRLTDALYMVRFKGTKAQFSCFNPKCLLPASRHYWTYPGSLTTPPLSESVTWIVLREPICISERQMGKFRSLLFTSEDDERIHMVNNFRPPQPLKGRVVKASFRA

Carbonic anhydrase 1 [3] = target: T3, Carbonic anhydrase 1 (Homo sapiens, UniProt P00915); assay: Inhibition of human recombinant carbonic anhydrase 1 preincubated for 15 mins to 72 hrs measured after 6 hrs by stopped flow CO2 hydration method
T3 sequence (P00915 whole entry): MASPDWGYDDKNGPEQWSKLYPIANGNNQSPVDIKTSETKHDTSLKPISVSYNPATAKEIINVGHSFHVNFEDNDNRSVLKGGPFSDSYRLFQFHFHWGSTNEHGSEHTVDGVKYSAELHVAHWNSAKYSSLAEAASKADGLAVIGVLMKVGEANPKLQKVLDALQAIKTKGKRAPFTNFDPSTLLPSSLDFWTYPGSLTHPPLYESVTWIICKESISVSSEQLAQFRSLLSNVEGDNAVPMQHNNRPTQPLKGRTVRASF

Carbonic anhydrase 9 [4] = target: T4, Carbonic anhydrase 9 (Homo sapiens, UniProt Q16790); assay: Inhibition of human recombinant carbonic anhydrase 9 preincubated for 15 mins to 72 hrs measured after 6 hrs by stopped flow CO2 hydration method
Carbonic anhydrase 2 [5] = target: T5, Carbonic anhydrase 2 (Homo sapiens, UniProt P00918); assay: Inhibition of human recombinant carbonic anhydrase 2 preincubated for 15 mins to 72 hrs measured after 6 hrs by stopped flow CO2 hydration method
Carbonic anhydrase 4 [6] = target: T6, Carbonic anhydrase 4 (Homo sapiens, UniProt P22748); assay: Inhibition of human recombinant carbonic anhydrase 4 preincubated for 15 mins to 72 hrs measured after 6 hrs by stopped flow CO2 hydration method
T6 sequence (P22748 whole entry): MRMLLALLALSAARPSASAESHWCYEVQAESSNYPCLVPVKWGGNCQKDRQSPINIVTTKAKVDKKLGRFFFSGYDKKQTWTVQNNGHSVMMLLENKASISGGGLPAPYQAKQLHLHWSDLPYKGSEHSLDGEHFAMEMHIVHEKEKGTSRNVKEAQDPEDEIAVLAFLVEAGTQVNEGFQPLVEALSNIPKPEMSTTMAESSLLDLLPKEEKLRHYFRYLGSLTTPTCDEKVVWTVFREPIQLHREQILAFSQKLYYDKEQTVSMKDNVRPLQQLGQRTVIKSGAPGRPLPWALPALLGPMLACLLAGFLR

Carbonic anhydrase 3 [7] = target: T7, Carbonic anhydrase 3 (Homo sapiens, UniProt P07451); assay: Inhibition of human recombinant carbonic anhydrase 3 preincubated for 15 mins to 72 hrs measured after 6 hrs by stopped flow CO2 hydration method
T7 sequence (P07451 whole entry): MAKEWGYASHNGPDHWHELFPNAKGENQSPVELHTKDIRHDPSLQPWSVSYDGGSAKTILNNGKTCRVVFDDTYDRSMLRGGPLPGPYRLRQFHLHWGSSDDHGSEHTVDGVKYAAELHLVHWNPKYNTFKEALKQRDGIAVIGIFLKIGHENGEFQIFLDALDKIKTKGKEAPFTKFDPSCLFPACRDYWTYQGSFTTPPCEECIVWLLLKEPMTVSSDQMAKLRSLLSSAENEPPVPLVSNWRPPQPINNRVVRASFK

Carbonic anhydrase 13 [8] = target: T8, Carbonic anhydrase 13 (Homo sapiens, UniProt Q8N1Q1); assay: Inhibition of human recombinant carbonic anhydrase 13 preincubated for 15 mins to 72 hrs measured after 6 hrs by stopped flow CO2 hydration method
T8 sequence (Q8N1Q1 whole entry): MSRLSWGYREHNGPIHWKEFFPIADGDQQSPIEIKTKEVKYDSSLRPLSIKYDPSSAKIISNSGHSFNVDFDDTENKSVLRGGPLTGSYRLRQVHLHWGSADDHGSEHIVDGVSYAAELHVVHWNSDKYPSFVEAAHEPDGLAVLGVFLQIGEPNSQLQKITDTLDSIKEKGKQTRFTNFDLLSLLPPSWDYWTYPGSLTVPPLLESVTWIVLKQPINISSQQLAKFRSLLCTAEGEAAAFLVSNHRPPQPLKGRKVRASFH

Carbonic anhydrase 2 [9] = target: T5, Carbonic anhydrase 2; assay: Inhibition of human recombinant carbonic anhydrase 2 preincubated for 15 mins to 72 hrs measured after 15 mins by stopped flow CO2 hydration method
Carbonic anhydrase 9 [10] = target: T4, Carbonic anhydrase 9; assay: Inhibition of human recombinant carbonic anhydrase 9 preincubated for 15 mins to 72 hrs measured after 15 mins by stopped flow CO2 hydration method
Carbonic anhydrase 1 [11] = target: T3, Carbonic anhydrase 1; assay: Inhibition of human recombinant carbonic anhydrase 1 preincubated for 15 mins to 72 hrs measured after 15 mins by stopped flow CO2 hydration method
Carbonic anhydrase 7 [12] = target: T2, Carbonic anhydrase 7; assay: Inhibition of human recombinant carbonic anhydrase 7 preincubated for 15 mins to 72 hrs measured after 15 mins by stopped flow CO2 hydration method
Carbonic anhydrase 12 [13] = target: T1, Carbonic anhydrase 12; assay: Inhibition of human recombinant carbonic anhydrase 12 preincubated for 15 mins to 72 hrs measured after 15 mins by stopped flow CO2 hydration method
[14] = target: T9, Carbonic anhydrase 5A, mitochondrial (Homo sapiens, UniProt P35218); assay: Inhibition of human recombinant carbonic anhydrase 5A preincubated for 15 mins to 72 hrs measured after 6 hrs by stopped flow CO2 hydration method
T9 sequence (P35218 whole entry): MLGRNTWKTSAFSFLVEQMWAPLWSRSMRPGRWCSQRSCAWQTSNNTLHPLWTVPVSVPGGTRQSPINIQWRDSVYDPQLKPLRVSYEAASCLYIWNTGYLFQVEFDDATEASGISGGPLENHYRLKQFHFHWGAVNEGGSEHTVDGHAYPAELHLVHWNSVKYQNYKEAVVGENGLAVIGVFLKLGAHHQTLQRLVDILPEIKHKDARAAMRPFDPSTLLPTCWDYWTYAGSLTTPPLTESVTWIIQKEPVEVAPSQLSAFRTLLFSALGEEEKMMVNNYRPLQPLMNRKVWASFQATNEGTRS

Carbonic anhydrase 13 [15] = target: T8, Carbonic anhydrase 13; assay: Inhibition of human recombinant carbonic anhydrase 13 preincubated for 15 mins to 72 hrs measured after 15 mins by stopped flow CO2 hydration method
[16] = target: T10, Carbonic anhydrase 5B, mitochondrial (Homo sapiens, UniProt Q9Y2D0); assay: Inhibition of human recombinant carbonic anhydrase 5B preincubated for 15 mins to 72 hrs measured after 6 hrs by stopped flow CO2 hydration method
T10 sequence (Q9Y2D0 whole entry): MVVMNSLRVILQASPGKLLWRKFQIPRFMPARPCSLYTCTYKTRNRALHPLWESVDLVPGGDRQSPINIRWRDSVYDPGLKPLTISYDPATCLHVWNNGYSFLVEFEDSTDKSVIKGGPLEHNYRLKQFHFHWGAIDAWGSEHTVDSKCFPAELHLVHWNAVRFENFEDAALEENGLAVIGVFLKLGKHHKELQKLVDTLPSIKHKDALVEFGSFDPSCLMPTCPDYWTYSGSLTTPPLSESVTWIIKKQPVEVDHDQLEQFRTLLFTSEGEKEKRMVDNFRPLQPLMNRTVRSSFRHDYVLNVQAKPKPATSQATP

[17] = target: T10, Carbonic anhydrase 5B, mitochondrial; assay: Inhibition of human recombinant carbonic anhydrase 5B preincubated for 15 mins to 72 hrs measured after 15 mins by stopped flow CO2 hydration method
Carbonic anhydrase 6 [18] = target: T11, Carbonic anhydrase 6 (Homo sapiens, UniProt P23280); assay: Inhibition of human recombinant carbonic anhydrase 6 preincubated for 15 mins to 72 hrs measured after 6 hrs by stopped flow CO2 hydration method
T11 sequence (P23280 whole entry): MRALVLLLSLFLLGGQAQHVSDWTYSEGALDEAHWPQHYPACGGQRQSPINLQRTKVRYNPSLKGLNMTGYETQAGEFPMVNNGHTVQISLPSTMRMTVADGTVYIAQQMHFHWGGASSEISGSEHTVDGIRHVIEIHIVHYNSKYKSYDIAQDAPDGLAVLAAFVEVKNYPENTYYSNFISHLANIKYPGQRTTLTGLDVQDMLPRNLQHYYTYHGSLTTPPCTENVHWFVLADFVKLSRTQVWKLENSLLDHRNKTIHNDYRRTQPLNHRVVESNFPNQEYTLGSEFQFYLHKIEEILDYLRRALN

Carbonic anhydrase 14 [19] = target: T12, Carbonic anhydrase 14 (Homo sapiens, UniProt Q9ULX7); assay: Inhibition of human recombinant carbonic anhydrase 14 preincubated for 15 mins to 72 hrs measured after 15 mins by stopped flow CO2 hydration method
T12 sequence (Q9ULX7 whole entry): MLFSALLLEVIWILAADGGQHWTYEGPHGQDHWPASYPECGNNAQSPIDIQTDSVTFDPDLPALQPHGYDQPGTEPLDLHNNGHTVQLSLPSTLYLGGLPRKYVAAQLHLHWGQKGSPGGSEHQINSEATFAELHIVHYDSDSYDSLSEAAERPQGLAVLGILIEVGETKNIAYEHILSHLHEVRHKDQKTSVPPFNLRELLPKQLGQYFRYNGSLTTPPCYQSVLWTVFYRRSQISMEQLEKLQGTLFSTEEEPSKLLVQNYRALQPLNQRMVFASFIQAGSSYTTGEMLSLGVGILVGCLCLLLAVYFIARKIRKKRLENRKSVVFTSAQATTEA

Carbonic anhydrase 14 [20] = target: T12, Carbonic anhydrase 14; assay: Inhibition of human recombinant carbonic anhydrase 14 preincubated for 15 mins to 72 hrs measured after 6 hrs by stopped flow CO2 hydration method
Carbonic anhydrase 3 [21] = target: T7, Carbonic anhydrase 3; assay: Inhibition of human recombinant carbonic anhydrase 3 preincubated for 15 mins to 72 hrs measured after 15 mins by stopped flow CO2 hydration method
Carbonic anhydrase 4 [22] = target: T6, Carbonic anhydrase 4; assay: Inhibition of human recombinant carbonic anhydrase 4 preincubated for 15 mins to 72 hrs measured after 15 mins by stopped flow CO2 hydration method
Carbonic anhydrase 6 [23] = target: T11, Carbonic anhydrase 6; assay: Inhibition of human recombinant carbonic anhydrase 6 preincubated for 15 mins to 72 hrs measured after 15 mins by stopped flow CO2 hydration method
[24] = target: T9, Carbonic anhydrase 5A, mitochondrial; assay: Inhibition of human recombinant carbonic anhydrase 5A preincubated for 15 mins to 72 hrs measured after 15 mins by stopped flow CO2 hydration method
[25] = tested as the Zn salt or complex

For O/N=c1/ccc2ccccc2o1, the pKi (Carbonic anhydrase 12 [1]) was 7.27, the pKi (Carbonic anhydrase 7 [2]) was 6.08 and the pKi (Carbonic anhydrase 1 [3]) was 8.05. For the same compound, the pKi (Carbonic anhydrase 9 [4]) was 7.24 and the pKi (Carbonic anhydrase 2 [5]) was less than 3.70.

Work on O=c1ccc2ccccc2o1 [COUMARIN] yielded a pKi (Carbonic anhydrase 4 [6]) of 4.21, a pKi (Carbonic anhydrase 7 [2]) of less than 3.70 and a pKi (Carbonic anhydrase 3 [7]) of less than 3.70. For the same compound, the pKi (Carbonic anhydrase 13 [8]) was less than 3.70.

With O=C(S)c1ccccc1 [THIOBENZOIC ACID] the pKi (Carbonic anhydrase 2 [9]) was 4.29, the pKi (Carbonic anhydrase 12 [1]) was 5.56 and the pKi (Carbonic anhydrase 9 [10]) was 5.25. It also gave a pKi (Carbonic anhydrase 1 [11]) of 4.97, a pKi (Carbonic anhydrase 7 [2]) of 5.24 and a pKi (Carbonic anhydrase 1 [3]) of 4.97. The pKi (Carbonic anhydrase 9 [4]) was 5.25, the pKi (Carbonic anhydrase 7 [12]) was 5.24 and the pKi (Carbonic anhydrase 12 [13]) was 5.56. For the same compound, the pKi (Carbonic anhydrase 2 [5]) was 4.29.

Oc1ccc2ccccc2n1 was tested, and the pKi (Carbonic anhydrase 2 [9]) was less than 3.70, the pKi (Carbonic anhydrase 12 [1]) was 7.03 and the pKi [14] was 6.39. The pKi (Carbonic anhydrase 13 [15]) was 7.19, the pKi (Carbonic anhydrase 9 [10]) was 7.09 and the pKi (Carbonic anhydrase 1 [11]) was 5.21. It also gave a pKi (Carbonic anhydrase 4 [6]) of 6.44, a pKi (Carbonic anhydrase 7 [2]) of 6.38 and a pKi [16] of 6.12. It also gave a pKi (Carbonic anhydrase 3 [7]) of 6.24, a pKi [17] of 6.12 and a pKi (Carbonic anhydrase 6 [18]) of 7.48. It also gave a pKi (Carbonic anhydrase 14 [19]) of 7.44, a pKi (Carbonic anhydrase 1 [3]) of 5.21 and a pKi (Carbonic anhydrase 9 [4]) of 7.09. The pKi (Carbonic anhydrase 14 [20]) was 7.44, the pKi (Carbonic anhydrase 3 [21]) was 6.24 and the pKi (Carbonic anhydrase 4 [22]) was 6.44. The pKi (Carbonic anhydrase 13 [8]) was 7.19, the pKi (Carbonic anhydrase 6 [23]) was 7.48 and the pKi [24] was 6.39. It also gave a pKi (Carbonic anhydrase 7 [12]) of 6.38, a pKi (Carbonic anhydrase 12 [13]) of 7.03 and a pKi (Carbonic anhydrase 2 [5]) of less than 3.70.

Work on [O-][n+]1ccccc1S [PYRITHIONE ZINC] yielded a pKi (Carbonic anhydrase 2 [9]; [25]) of less than 3.70, a pKi (Carbonic anhydrase 12 [1]; [25]) of 5.27 and a pKi [14, 25] of 5.29. The pKi (Carbonic anhydrase 13 [15]; [25]) was 5.38, the pKi (Carbonic anhydrase 9 [10]; [25]) was 5.76 and the pKi (Carbonic anhydrase 1 [11]; [25]) was less than 3.70. The pKi (Carbonic anhydrase 4 [6]; [25]) was 5.21, the pKi (Carbonic anhydrase 7 [2]; [25]) was 5.11 and the pKi [16, 25] was 5.45. For the same compound, the pKi (Carbonic anhydrase 3 [7]; [25]) was 5.79, the pKi [17, 25] was 5.45 and the pKi (Carbonic anhydrase 6 [18]; [25]) was 5.62. The pKi (Carbonic anhydrase 14 [19]; [25]) was 5.54, the pKi (Carbonic anhydrase 1 [3]; [25]) was less than 3.70 and the pKi (Carbonic anhydrase 9 [4]; [25]) was 5.76. It also gave a pKi (Carbonic anhydrase 14 [20]; [25]) of 5.54, a pKi (Carbonic anhydrase 3 [21]; [25]) of 5.79 and a pKi (Carbonic anhydrase 4 [22]; [25]) of 5.21. The pKi (Carbonic anhydrase 13 [8]; [25]) was 5.38, the pKi (Carbonic anhydrase 6 [23]; [25]) was 5.62 and the pKi [24, 25] was 5.29. It also gave a pKi (Carbonic anhydrase 7 [12]; [25]) of 5.11, a pKi (Carbonic anhydrase 12 [13]; [25]) of 5.27 and a pKi (Carbonic anhydrase 2 [5]; [25]) of less than 3.70.

CCOP(=S)(OCC)Oc1ccc2c(C)c(Cl)c(=O)oc2c1 [COUMAPHOS] gave a pKi (Carbonic anhydrase 12 [1]) of 5.02, a pKi [14] of 5.29 and a pKi (Carbonic anhydrase 4 [6]) of 5.26. For the same compound, the pKi (Carbonic anhydrase 7 [2]) was 5.33, the pKi [16] was 5.47 and the pKi (Carbonic anhydrase 3 [7]) was 5.34. The pKi (Carbonic anhydrase 6 [18]) was 5.65, the pKi (Carbonic anhydrase 1 [3]) was 4.21 and the pKi (Carbonic anhydrase 9 [4]) was 5.19. The pKi (Carbonic anhydrase 14 [20]) was 5.38, the pKi (Carbonic anhydrase 13 [8]) was 5.37 and the pKi (Carbonic anhydrase 2 [5]) was less than 3.70.

Cc1cc(C)o/c(=N/O)c1 gave a pKi (Carbonic anhydrase 12 [1]) of 7.19, a pKi (Carbonic anhydrase 7 [2]) of 6.57 and a pKi (Carbonic anhydrase 1 [3]) of 8.05. For the same compound, the pKi (Carbonic anhydrase 9 [4]) was 7.80 and the pKi (Carbonic anhydrase 2 [5]) was less than 3.70.
